Data reported in patent publication US8710089B2, “Triazole derivatives as ghrelin analogue ligands of growth hormone secretagogue receptors” (Zentaris GmbH, priority 2005, dated 2014).

Target: T1, human GHS-R 1a (Homo sapiens, UniProt Q92847)
T1 construct: expressed in transfected cells; host or cells: LLC PK-1 porcine renal epithelial cells (ECACC No. 86121112), isolated plasma membranes
Experiment: GHS-R 1a receptor-ligand binding assay (membrane preparations from transfected LLC PK-1 cells)
Settings: displacement of 125I-His9-ghrelin (60 pM); membranes of LLC PK-1 cells transfected with human GHS-R 1a; mean of at least two independent experiments in triplicates
Method: (J. Med. […] Med. Chem. 2003, 46: 1191-1203), were incubated in homogenization buffer HB [50 mM Tris (pH 7.3), 5 mM MgCl2, 2.5 mM EDTA, and 30 μg/mL bacitracin (Sigma)] for 60 min at 25° C. (steady-state conditions) with 60 pM ^125I-[…]-ghrelin (Amersham) in the presence or absence of competing compounds (compounds of the invention). […] Nonspecific binding was defined using an excess (10^-6 M) of ghrelin. The binding reaction was stopped by addition of 4 mL of ice-cold HB followed by rapid filtration over Whatman GP/C filters presoaked with 0.5% polyethyleneimine to prevent excessive binding of radioligand to the filters. […] IC50 values given are the mean of at least two independent experiments performed in triplicates.

T1 sequence (Q92847 whole entry): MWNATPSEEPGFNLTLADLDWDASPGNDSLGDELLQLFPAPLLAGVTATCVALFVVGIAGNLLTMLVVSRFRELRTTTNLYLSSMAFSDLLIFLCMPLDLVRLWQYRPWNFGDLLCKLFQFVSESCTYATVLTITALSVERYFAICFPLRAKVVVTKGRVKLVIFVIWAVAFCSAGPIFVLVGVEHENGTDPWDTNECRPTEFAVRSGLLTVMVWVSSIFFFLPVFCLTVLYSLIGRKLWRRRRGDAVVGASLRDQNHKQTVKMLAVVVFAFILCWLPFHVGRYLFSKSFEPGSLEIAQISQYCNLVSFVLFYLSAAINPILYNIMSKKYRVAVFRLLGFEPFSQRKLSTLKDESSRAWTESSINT

| IC50 [nM] | SMILES |
| --- | --- |
| 10 | COc1ccc(Cn2c(CCc3c[nH]c4ccccc34)nnc2[C@@H](Cc2c[nH]c3ccccc23)NC(=O)[C@H]2CCCNC2)cc1 [compound 87, (S)—N—((R)-1-(5-(2-(1H-indol-3-yl)ethyl)-4-(4-methoxybenzyl)-4H-1,2,4-triazol-3-yl)-2-(1H-indol-3-yl)ethyl)piperidine-3-carboxamide] |
| 0.3 | COc1ccc(Cn2c(CCc3c[nH]c4ccccc34)nnc2[C@@H](Cc2c[nH]c3ccccc23)NC(=O)C2CCNCC2)cc1 [compound 45, (R)—N-(1-(5-(2-(1H-indol-3-yl)ethyl)-4-(4-methoxybenzyl)-4H-1,2,4-triazol-3-yl)-2-(1H-indol-3-yl)ethyl)piperidine-4-carboxamide] |
| 0.7 | COc1ccc(Cn2c(CCc3ccccc3)nnc2[C@@H](Cc2c[nH]c3ccccc23)NC(=O)c2ccccn2)cc1 [compound 79, (R)—N-(1-(4-(4-methoxybenzyl)-5-phenethyl-4H-1,2,4-triazol-3-yl)-2-(1H-indol-3-yl)ethyl)picolinamide] |
| 137 | CC(C)(N)C(=O)N[C@H](Cc1c[nH]c2ccccc12)c1nnc(CCCc2c[nH]c3ccccc23)n1Cc1cccc2ccccc12 [compound 11, (R)—N-(1-(5-(3-(1H-indol-3-yl)propyl)-4-(naphthalen-1-ylmethyl)-4H-1,2,4-triazol-3-yl)-2-(1H-indol-3-yl)ethyl)-2-amino-2-methylpropanamide] |
| 250 | COc1cc(Cn2c(Cc3ccccc3)nnc2[C@@H](Cc2c[nH]c3ccccc23)NC(=O)C(C)(C)N)cc(OC)c1 [compound 108, (R)—N-(1-(4-(3,5-dimethoxybenzyl)-5-benzyl-4H-1,2,4-triazol-3-yl)-2-(1H-indol-3-yl)ethyl)-2-amino-2-methylpropanamide] |
| 143 | COc1ccc(Cn2c(CCc3c[nH]c4ccccc34)nnc2[C@@H](Cc2c[nH]c3ccccc23)NC(=O)C2CCCCC2N)c(OC)c1 (stereo partly drawn) [compound 86, (R)—N-(1-(5-(2-(1H-indol-3-yl)ethyl)-4-(2,4-dimethoxybenzyl)-4H-1,2,4-triazol-3-yl)-2-(1H-indol-3-yl)ethyl)-2-cis-aminocyclohexanecarboxamide] |
| 58 | COc1ccc(Cn2c(CCc3ccccc3)nnc2[C@@H](Cc2c[nH]c3ccccc23)NC(=O)c2ccncc2)c(OC)c1 [compound 65, (R)—N-(1-(4-(2,4-dimethoxybenzyl)-5-phenethyl-4H-1,2,4-triazol-3-yl)-2-(1H-indol-3-yl)ethyl)isonicotinamide] |

The remaining lines, values behind:

| SMILES | IC50 [nM] |
| --- | --- |
| COc1ccc(Cn2c(CCc3ccccc3)nnc2[C@@H](Cc2c[nH]c3ccccc23)NC(=O)[C@@H]2C[C@@H](O)CN2)cc1 [compound 40, (2S,4R)—N—((R)-1-(4-(4-methoxybenzyl)-5-phenethyl-4H-1,2,4-triazol-3-yl)-2-(1H-indol-3-yl)ethyl)-4-hydroxypyrrolidine-2-carboxamide] | 249 |
| COc1ccc(Cn2c(CCc3ccccc3)nnc2[C@@H](Cc2c[nH]c3ccccc23)NC(=O)[C@@H]2CCCN2)c(OC)c1 [compound 68, (S)—N—((R)-1-(4-(2,4-dimethoxybenzyl)-5-phenethyl-4H-1,2,4-triazol-3-yl)-2-(1H-indol-3-yl)ethyl)pyrrolidine-2-carboxamide] | 44 |
| O=C(N[C@H](Cc1c[nH]c2ccccc12)c1nnc(CCc2ccccc2)n1Cc1ccco1)c1ccccn1 [compound 182, N—((R)-1-(4-((furan-2-yl)methyl)-5-phenethyl-4H-1,2,4-triazol-3-yl)-2-(1H-indol-3-yl)ethyl)picolinamide] | 81 |
| COc1ccc(Cn2c(CCc3c[nH]c4ccccc34)nnc2[C@@H](Cc2c[nH]c3ccccc23)NC(=O)[C@@H]2C=CCN2)cc1 [compound 190, (2S)—N—((R)-1-(5-(2-(1H-indol-3-yl)ethyl)-4-(4-methoxybenzyl)-4H-1,2,4-triazol-3-yl)-2-(1H-indol-3-yl)ethyl)-2,5-dihydro-1H-pyrrole-2-carboxamide] | 12 |
| COc1ccc(Cn2c(CCc3c[nH]c4ccccc34)nnc2[C@@H](Cc2c[nH]c3ccccc23)NC(=O)C2CCCNC2)c(OC)c1 (stereo partly drawn) [compound 32, (R)—N-(1-(5-(2-(1H-indol-3-yl)ethyl)-4-(2,4-dimethoxybenzyl)-4H-1,2,4-triazol-3-yl)-2-(1H-indol-3-yl)ethyl)piperidine-3-carboxamide] | 10.3 |
| O=C(N[C@H](Cc1c[nH]c2ccccc12)c1nnc(CCc2c[nH]c3ccccc23)n1-c1ccccc1)c1ccccn1 [compound 157, N—((R)-1-(5-(2-(1H-indol-3-yl)ethyl)-4-phenyl-4H-1,2,4-triazol-3-yl)-2-(1H-indol-3-yl)ethyl)picolinamide] | 160 |
| CC(C)(C)Sc1nnc([C@@H](Cc2c[nH]c3ccccc23)NC(=O)C(C)(C)N)n1Cc1ccco1 [Example 39 from WO 00/54729 A2, (R)—N-(1-(5-(tert-butylthio)-4-(furan-2-ylmethyl)-4H-1,2,4-triazol-3-yl)-2-(1H-indol-3-yl)ethyl)-2-amino-2-methylpropanamide, reference compound] | ~5000 |
| COc1ccc(Cn2c(CCc3ccccc3)nnc2[C@@H](Cc2c[nH]c3ccccc23)NC(=O)[C@H]2CCCCN2)c(OC)c1 [compound 63, (R)—N—((R)-1-(4-(2,4-dimethoxybenzyl)-5-phenethyl-4H-1,2,4-triazol-3-yl)-2-(1H-indol-3-yl)ethyl)piperidine-2-carboxamide] | 210 |
| COc1ccc(Cn2c(CCc3ccccc3)nnc2[C@@H](Cc2c[nH]c3ccccc23)NC(=O)C2CNCCN2)cc1 (stereo partly drawn) [compound 78] | 54 |
| CC(C)(N)C(=O)N[C@H](Cc1c[nH]c2ccccc12)c1nnc(CCc2c[nH]c3ccccc23)n1Cc1ccc(Cl)c(Cl)c1 [compound 28, (R)—N-(1-(5-(2-(1H-indol-3-yl)ethyl)-4-(3,4-dichlorobenzyl)-4H-1,2,4-triazol-3-yl)-2-(1H-indol-3-yl)ethyl)-2-amino-2-methylpropanamide] | 79 |
| COc1ccc(Cn2c(CCc3ccccc3)nnc2[C@@H](Cc2c[nH]c3ccccc23)NC(=O)c2ccc(N=[N+]=[N-])cc2)c(OC)c1 [compound 188, N—((R)-1-(4-(2,4-dimethoxybenzyl)-5-phenethyl-4H-1,2,4-triazol-3-yl)-2-(1H-indol-3-yl)ethyl)-4-azidobenzamide] | 87 |
| COC(=O)CCn1nnnc1[C@@H](Cc1c[nH]c2ccccc12)NC(=O)C(C)(C)N [Example 3 from WO 00/54729 A2, (R)—N-(1-(1-methylpropanoate-tetrazol-5-yl)-2-(1H-indol-3-yl)ethyl)-2-amino-2-methylpropanamide, reference compound] | ~3000 |
| COc1ccc(Cn2c(CCc3ccccc3)nnc2[C@@H](Cc2c[nH]c3ccccc23)NC(=O)Cc2ccccn2)cc1 [compound 51, (R)—N-(1-(4-(4-methoxybenzyl)-5-phenethyl-4H-1,2,4-triazol-3-yl)-2-(1H-indol-3-yl)ethyl)-2-(pyridin-2-yl)acetamide] | 3 |
| COc1ccc(Cn2c(CCc3ccccc3)nnc2[C@@H](Cc2c[nH]c3ccccc23)NC(=O)c2cnccn2)cc1 [compound 76, (R)—N-(1-(4-(4-methoxybenzyl)-5-phenethyl-4H-1,2,4-triazol-3-yl)-2-(1H-indol-3-yl)ethyl)pyrazine-2-carboxamide] | 14 |
